Experiment [1] has as its system Rattus norvegicus. The experiment can be described thus: Effect of compound on total full contralateral turns at the dose of 0.3 mg/Kg administered perorally in ungerstedt rat model. The class given is functional.
Experiment [2] concerns Rattus norvegicus. The experiment can be described thus: Effect of compound on total full contralateral turns at the dose of 1.0 mg/Kg administered perorally in ungerstedt rat model. The class given is functional.
For experiment [3], the target named is D(2) dopamine receptor (Homo sapiens, UniProt P14416). The experiment can be described thus: Tested for percent intrinsic activity towards Dopamine receptor D2 in CHO cells. The class given is cell-based.
Chain of D(2) dopamine receptor (Homo sapiens, UniProt P14416) (P14416 whole entry): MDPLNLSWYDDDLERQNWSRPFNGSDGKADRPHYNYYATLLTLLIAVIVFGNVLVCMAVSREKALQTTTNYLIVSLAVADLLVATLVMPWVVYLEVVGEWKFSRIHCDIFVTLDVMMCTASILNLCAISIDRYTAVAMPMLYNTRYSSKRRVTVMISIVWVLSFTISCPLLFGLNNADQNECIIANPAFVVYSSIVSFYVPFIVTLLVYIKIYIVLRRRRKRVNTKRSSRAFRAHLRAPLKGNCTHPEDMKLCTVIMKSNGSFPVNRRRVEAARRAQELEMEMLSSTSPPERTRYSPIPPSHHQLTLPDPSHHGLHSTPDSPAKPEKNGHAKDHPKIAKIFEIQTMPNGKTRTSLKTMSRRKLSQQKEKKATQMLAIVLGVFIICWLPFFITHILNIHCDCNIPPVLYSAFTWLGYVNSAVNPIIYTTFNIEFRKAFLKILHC
Experiment [4] deals with D(2) dopamine receptor (Rattus norvegicus, UniProt P61169). The experiment can be described thus: In vitro binding affinity towards Dopamine receptor D2.
Chain of D(2) dopamine receptor (Rattus norvegicus, UniProt P61169) (P61169 whole entry): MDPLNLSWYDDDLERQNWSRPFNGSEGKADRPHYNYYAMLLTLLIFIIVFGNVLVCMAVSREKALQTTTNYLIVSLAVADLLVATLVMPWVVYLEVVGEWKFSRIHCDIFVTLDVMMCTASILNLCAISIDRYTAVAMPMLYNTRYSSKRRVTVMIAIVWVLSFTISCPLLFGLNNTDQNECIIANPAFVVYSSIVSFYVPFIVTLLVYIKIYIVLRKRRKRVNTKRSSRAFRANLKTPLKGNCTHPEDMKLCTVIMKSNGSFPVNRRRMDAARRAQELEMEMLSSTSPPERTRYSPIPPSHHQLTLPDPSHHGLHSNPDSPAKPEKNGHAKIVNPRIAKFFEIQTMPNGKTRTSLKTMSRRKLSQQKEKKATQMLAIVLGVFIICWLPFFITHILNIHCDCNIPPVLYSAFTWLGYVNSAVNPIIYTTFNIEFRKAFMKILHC
The subject of experiment [5] is Rattus norvegicus. The experiment can be described thus: Effect of compound on total full contralateral turns at the dose of 10 mg/Kg administered perorally in ungerstedt rat model; […]. It is filed as functional, organism-based.
For experiment [6], the system named is Rattus norvegicus. The experiment can be described thus: Effect of compound on total full contralateral turns at the dose of 10 mg/Kg administered perorally in ungerstedt rat model. The class given is functional.
Another experiment concerns the target D(1A) dopamine receptor (Rattus norvegicus, UniProt P18901). The experiment can be described thus: In vitro binding affinity towards Dopamine receptor D1.

Activity calls are given as the source filed them. No cut-off for these calls is given here. Some results are limits rather than exact numbers.

Chain of D(1A) dopamine receptor (P18901 whole entry): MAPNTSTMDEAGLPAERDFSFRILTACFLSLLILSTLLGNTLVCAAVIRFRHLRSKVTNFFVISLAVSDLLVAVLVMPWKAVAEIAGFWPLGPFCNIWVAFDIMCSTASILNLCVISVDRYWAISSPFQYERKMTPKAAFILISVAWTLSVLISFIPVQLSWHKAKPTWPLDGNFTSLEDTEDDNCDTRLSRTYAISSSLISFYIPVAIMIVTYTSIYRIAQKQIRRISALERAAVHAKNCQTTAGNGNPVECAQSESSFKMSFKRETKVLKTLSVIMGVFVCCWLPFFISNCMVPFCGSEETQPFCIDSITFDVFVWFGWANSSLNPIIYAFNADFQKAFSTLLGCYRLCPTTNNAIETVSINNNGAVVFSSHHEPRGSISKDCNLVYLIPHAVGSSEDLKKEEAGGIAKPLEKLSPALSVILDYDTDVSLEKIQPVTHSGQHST

As for `CCCN(CCC)C1CCC2=C(CCC/C2=N\OC(=O)C(C)(C)C)C1` (stereo unspecified), the Turns with Rattus norvegicus [1] was determined as 187.

The compound `CCCN(CCC)C1CCC2=C(CCC/C2=N\OC(=O)c2ccccc2)C1` (stereo unspecified) showed a Turns in the experiment on Rattus norvegicus [2] of 2208.

`CCCN(CCC)C1CCC2=C(CCC/C2=N\OC(C)(C)C)C1` (stereo unspecified) yielded a Turns with Rattus norvegicus [2] of 2118. Regarding `CCCN(CCC)[C@H]1CCC2=C(CCC/C2=N\OC(C)=O)C1`, the Turns with Rattus norvegicus [1] came out at 2007. `CCCO/N=C1\CCCC2=C1CCC(N(CCC)CCC)C2` (stereo unspecified): the results for the Turns with Rattus norvegicus [1] and with Rattus norvegicus [2] were 943 and 5406, respectively. For `CCCN(CCC)C1CCC2=C(CCC/C2=N\OC(C)=O)C1` (stereo unspecified), the Turns with Rattus norvegicus [1] turned out to be 365. By EC50 is commonly meant the midpoint of the concentration-response curve. As a reminder, the Ki is a dissociation constant, usually derived from enzyme kinetics or from competition with a known ligand. Consider `CCCN(CCC)C1CCC2=C(CCC/C2=N\OC)C1` (racemic), for which the results for the Turns in the experiment with Rattus norvegicus [1] and with Rattus norvegicus [2] were 1007 and 5295, respectively. On D(2) dopamine receptor [3], this compound registered an EC50 above 1000 nM. Moreover, the Ki on D(2) dopamine receptor [4] was 2300 nM. Take `CCCN(CCC)C1CCC2=C(CCC/C2=N\OC(=O)c2ccc(C)cc2)C1` (stereo unspecified): in the experiment with Rattus norvegicus [5], the Turns entry was “inactive”. As to `CCCN(CCC)C1CCC2=C(CCC/C2=N\OCc2ccccc2)C1` (stereo unspecified), the results for the Turns with Rattus norvegicus [1] and with Rattus norvegicus [2] were 1652 and 4702, respectively. `CCCN(CCC)[C@H]1CCC2=C(CCC/C2=N\OC)C1` came in with a Turns in the experiment on Rattus norvegicus [6] of 2014.

Turning to `CCCN(CCC)C1CCc2c(ccc(O)c2O)C1` (racemic), the Ki at D(1A) dopamine receptor turned out to be 170 nM; at D(2) dopamine receptor [4] it was 3 nM. Compound `CCCCO/N=C1\CCCC2=C1CCC(N(CCC)CCC)C2` (stereo unspecified) had a Turns in the experiment with Rattus norvegicus [2] of 1364. Regarding `CCCN(CCC)C1CCC2=C(CCC/C2=N\OCC)C1` (stereo unspecified), the figures for the Turns in the experiment with Rattus norvegicus [1] and in the experiment with Rattus norvegicus [2] were 176 and 4217, respectively. With `CCCN(CCC)C1CCC2=C(CCC/C2=N\OC(=O)C(C)C)C1` (stereo unspecified), the Turns with Rattus norvegicus [1] is 152.

For the origin of these results see ChEMBL document CHEMBL1144936, “Orally active oxime derivatives of the dopaminergic prodrug 6-(N,N-di-n-propylamino)-3,4,5,6,7,8-hexahydro-2H-naphthalen-1-one. Synthesis and pharmacological activity” (J Med Chem, 2003).
